Measurements from patent publication US4242327A, “Antibiotic SF-2052 substance and production and use thereof” (Meiji Seika Kaisha, Ltd., priority 1978, dated 1980).
Entries after “also recorded” stand apart in the source; their conditions may differ. Structures can show the parent of a compound that is named as a salt.

Legend:
[1] = tested on: gram-negative and gram-positive bacteria; test: Antibacterial activity, summary of Table 1; type: cell-based; conditions: against both gram-negative and gram-positive bacteria
Method: (§1) Antibacterial activity of SF-2052 substance of this invention (as the sulfate) to inhibit the growth of various bacteria was estimated according to a standard serial dilution method using Heart Infusion agar as the incubation medium. The incubation was made at a temperature of 37° C. for 16 hours.

Stability = type: physicochemical
Solubility = type: physicochemical; conditions: for solubility in organic solvents: chloroform, ethyl acetate
[2] = Acute toxicity, intravenous injection in mice; type: in vivo; conditions: mouse, in vivo, solution in isotonic aqueous sodium chloride, estimated
From the text: (§2) For determination of acute toxicity of the SF-2052 substance sulfate, this was intravenously injected as its solution in isotonic aqueous solution of sodium chloride into several groups of mice. […] According to this invention, therefore, there is further provided an antibacterial composition comprising as the active ingredient an antibacterially effective amount of at least one of the pharmaceutically acceptable acid-addition salts of the SF-2052 substance, in association with a pharmaceutically acceptable liquid or solid carrier. The content of this active ingredient in this antibacterial composition may be in a range of 5% to 50% by weight of the composition.

mice = test: Acute toxicity, intravenous injection in mice; type: in vivo; conditions: in words
From the text: as §2

Klebsiella pneumonia = test: Minimum inhibitory concentration, standard serial dilution method on Heart Infusion agar; type: cell-based; conditions: Klebsiella pneumoniae, 37° C., 16 hours
Method: as §1

[3] = tested on: Staphylococcus aureus 209P; test: as above; type: cell-based; conditions: 37° C., 16 hours
Method: as §1

[4] = tested on: Bacillus subtillis PCI-219; test: as above; type: cell-based; conditions: PCI219, 37° C., 16 hours
Method: as §1

[5] = tested on: Mycobacterium smegmatis 607 Sm-R; test: as above; type: cell-based; conditions: Mycolicibacterium smegmatis, 607SMR, 16 h
Method: as §1

Pseudomonas aeruginosa = test: as above; type: cell-based; conditions: 37° C., 16 hours
Method: as §1

Escherichia coli = test: as above; type: cell-based; conditions: 37° C., 16 hours
Method: as §1

[6] = tested on: Mycobacterium smegmatis 607 Km-R; test: as above; type: cell-based; conditions: Mycolicibacterium smegmatis, 607KMR, 16 h
Method: as §1

Proteus vulgaris = test: as above; type: cell-based; conditions: 37° C., 16 hours
Method: as §1

Sarcina lutea = test: as above; type: cell-based; conditions: Micrococcus luteus, 37° C., 16 hours
Method: as §1

Escherichia coli K-12-R = test: as above; type: cell-based; conditions: 16 h
Method: as §1

Escherichia coli B = test: as above; type: cell-based; conditions: 37° C., 16 hours
Method: as §1

Row | SMILES | antibacterial activity [1] | stability under alkaline pH conditions (Stability) | solubility in organic solvents (Solubility; hexane, benzene and ethylether etc.) | solubility in organic solvents (Solubility; benzene and ethylether) | solubility in methanol (Solubility; methanol) | solubility in water (Solubility; water) | stability under acidic to neutral pH conditions (Stability; acidic to neutral pH) | LD50 [2] [mg/kg] | acute toxicity (mice) | MIC (Klebsiella pneumonia) [µg/mL] | MIC [3] [µg/mL] | MIC [4] [µg/mL] | MIC [5] [µg/mL] | MIC (Pseudomonas aeruginosa) [µg/mL] | MIC (Escherichia coli) [µg/mL] | MIC [6] [µg/mL] | MIC (Proteus vulgaris) [µg/mL] | MIC (Sarcina lutea) [µg/mL] | MIC (Escherichia coli K-12-R) [µg/mL] | MIC (Escherichia coli B) [µg/mL]
1 | COC1C(O)C(N)C(OC2OC(C(C)N)CCC2N)C(O)C1N(C)C(=O)CNC=N (stereo not drawn) [SF-2052 substance] | high antibacterial activity against both gram-negative and gram-positive bacteria | very instable; also recorded: instable |  |  |  |  |  |  |  |  |  |  |  |  |  |  |  |  |  | 
2 | COC1C(O)C(N)C(OC2OC(C(C)N)CCC2N)C(O)C1N(C)C(=O)CNC=N (stereo not drawn) [SF-2052 substance hydrochloride] |  | instable | substantially insoluble | insoluble | soluble in methanol | Easily soluble in water; also recorded: readily soluble in water | Relatively stable; also recorded: substantially stable |  |  |  |  |  |  |  |  |  |  |  |  | 
3 | COC1C(O)C(N)C(OC2OC(C(C)N)CCC2N)C(O)C1N(C)C(=O)CNC=N (stereo not drawn) [SF-2052 substance sulfate] |  |  |  |  |  |  |  | 350 | substantially non-toxic | 3.12 | 3.12 | 1.56 | 1.56 | 100 | 12.5 | 100 | 1.56 | 0.78 | 3.12 | 6.25
